Test results: PubChem BioAssay (NCI)
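Growth conditions: 96-well plates. Treatment: test compound, 48 hours, 5 concentrations. Analysis: linear interpolation between bracketing concentrations; unreached endpoints set to highest concentration. Here, GI50 denotes the concentration required for 50% inhibition of growth. TGI marks complete inhibition of growth.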

Key:
Assay in all cases: inhibition of tumour cell growth, NCI panel, 48 h
RPMI-8226 leukemia = system: RPMI-8226 leukemia
TK-10 renal = system: TK-10 renal
CCRF-CEM leukemia = system: CCRF-CEM leukemia
HL-60(TB) leukemia = system: HL-60(TB) leukemia
CAKI-1 renal = system: CAKI-1 renal
SF-295 CNS = system: SF-295 CNS
SK-MEL-5 melanoma = system: SK-MEL-5 melanoma
UACC-62 melanoma = system: UACC-62 melanoma
HOP-62 NSCLC = system: HOP-62 NSCLC
PC-3 prostate = system: PC-3 prostate

SMILES	TGI (RPMI-8226 leukemia)	TGI (TK-10 renal)	TGI (CCRF-CEM leukemia)	TGI (HL-60(TB) leukemia)	TGI (CAKI-1 renal)	TGI (SF-295 CNS)	TGI (SK-MEL-5 melanoma)	TGI (UACC-62 melanoma)	TGI (HOP-62 NSCLC)	TGI (PC-3 prostate)	GI50 (RPMI-8226 leukemia)	GI50 (PC-3 prostate)	GI50 (TK-10 renal)	GI50 (CCRF-CEM leukemia)	GI50 (HL-60(TB) leukemia)	GI50 (CAKI-1 renal)	GI50 (SF-295 CNS)	GI50 (SK-MEL-5 melanoma)	GI50 (UACC-62 melanoma)	GI50 (HOP-62 NSCLC)
CN(C(=O)c1ccco1)C(=S)N1CCN(c2ccccc2)CC1	> 100 µM	> 100 µM	> 100 µM	> 100 µM	> 100 µM	> 100 µM	> 100 µM	> 100 µM	> 100 µM											
O=C(O)c1nc(-c2ccccc2)[nH]c1C(=O)O	4.14 µM	28.8 µM	3.04 µM	0.49 µM	27.5 µM	30.9 µM	28.6 µM	32.4 µM	32.6 µM	11.6 µM										
C[C@@H]1CC[C@H]2C(C(O)CCCCC(O)C3=C(C(F)(F)F)O[C@@H]4O[C@@]5(C)CC[C@H]6[C@H](C)CC[C@@H]3[C@@]46OO5)=C(C(F)(F)F)O[C@@H]3O[C@@]4(C)CC[C@@H]1[C@]32OO4 (some centres undefined)	> 100 µM	> 100 µM	> 100 µM	> 100 µM	> 100 µM	> 100 µM	> 100 µM	> 100 µM	> 100 µM	> 100 µM	5.06 µM	3.96 µM	> 100 µM	14.3 µM	6.44 µM	5.72 µM	53.7 µM	24.7 µM	8.13 µM	36.9 µM
Cc1c(NC(=O)CSC(=S)N2CCN(Cc3ccccc3)CC2)c(=O)n(-c2ccccc2)n1C	> 100 µM	> 100 µM	> 100 µM		> 100 µM	> 100 µM	> 100 µM		> 100 µM	> 100 µM										
CC(C)C(OC(=O)c1ccc(NCc2cc(O)ccc2O)cc1)C(C)C	0.931 µM	3.62 µM	0.589 µM	0.484 µM	0.701 µM	15.4 µM	7.45 µM	3.27 µM	21.7 µM	3.96 µM										
COC(=O)C(Cc1ccccc1)NP(=O)(O)OCC1OC(n2cc(F)c(=O)[nH]c2=O)CC1O (centres undefined)	> 100 µM	> 100 µM		> 100 µM	> 100 µM	> 100 µM	> 100 µM	> 100 µM	> 100 µM	> 100 µM										
COc1ccc2nc3cc([N+](=O)[O-])ccc3c(Nc3ccc(S(=O)(=O)NC(C)=O)cc3)c2c1	> 100 µM	> 100 µM	> 100 µM	> 100 µM	> 100 µM	> 100 µM	> 100 µM	> 100 µM	> 100 µM	> 100 µM										
CCOC(=O)c1nc2ccc(C(F)(F)F)cc2nc1Oc1cc(OC)cc(OC)c1	> 100 µM	> 100 µM	> 100 µM	> 100 µM		> 100 µM	79.1 µM	> 100 µM	> 100 µM	> 100 µM										
COc1ccc(C)cc1Nc1nnc(-c2ccccc2N)s1	53.4 µM		> 100 µM	73 µM	> 100 µM	> 100 µM	29.4 µM	> 100 µM	> 100 µM	> 100 µM										
COC1OC2COC1(OC)C1OC(C)(C)OC21 (centres undefined)	> 100 µM	> 100 µM	> 100 µM		> 100 µM	> 100 µM	> 100 µM	> 100 µM	> 100 µM	> 100 µM										
O=C1/C(=N\S(=O)(=O)c2ccccc2)C([n+]2ccc(Cc3ccccc3)cc2)=C([O-])c2ccccc21	> 100 µM	6.2 µM	> 100 µM		3.44 µM	3.22 µM	0.302 µM	2.42 µM	3.27 µM	9.39 µM										
CN(C)c1nc2oc(-c3ccccc3)c(-c3ccccc3)c2c2nnnn12	> 100 µM	> 100 µM	> 100 µM	96.2 µM	> 100 µM	> 100 µM	> 100 µM	> 100 µM												
O=c1c2cc(I)ccc2nc(-c2cccs2)n1-c1ccc(O)cc1	18.3 µM	23.3 µM		36.7 µM	32.9 µM	27.4 µM	24.3 µM	26.9 µM	32.4 µM	22.5 µM										
COc1ccc(C(=O)/C=C/c2c(Cl)c3c(c(OC)c2Cl)OCC(=O)N3)cc1	4.07 µM	6.09 µM	8.44 µM	10.6 µM		32.7 µM		3.59 µM	6.96 µM		1.07 µM		2.55 µM	1.87 µM	2.49 µM		3.23 µM		1.68 µM	2.8 µM
CCOC(=O)c1cc2c3c(c(C(C)=O)c(O)c2[nH]1)N(CC(C)CC)CC3 (centres undefined)	> 100 µM	> 100 µM	> 100 µM	> 100 µM	> 100 µM	> 100 µM		> 100 µM		> 100 µM										
CC1(C)CC(C)(C)C1=NNC(N)=O		> 100 µM	> 100 µM	> 100 µM	> 100 µM	> 100 µM	> 100 µM	> 100 µM	> 100 µM	> 100 µM										
c1ccc2c(c1)CCc1c-2n(CCN2CCOCC2)c2ccccc12	> 100 µM	> 100 µM	61.5 µM		> 100 µM	> 100 µM	51.2 µM	> 100 µM	> 100 µM	> 100 µM										
C/C(Nc1ccc(F)cc1)=C1/CCOC1=O	> 100 µM	> 100 µM	> 100 µM	> 100 µM		> 100 µM	> 100 µM	> 100 µM	> 100 µM	> 100 µM										
C(CCCCc1nnc(N2CCCCC2)o1)CCCc1nnc(N2CCCCC2)o1		> 100 µM	> 100 µM	> 100 µM	> 100 µM	> 100 µM	> 100 µM		> 100 µM	> 100 µM										
COC(=O)c1c(O)ccc2c1c1c(n2Cc2cccc(C)c2)C(=O)c2ccccc2C1=O	16.9 µM	25.2 µM	22.5 µM	45.9 µM	25.7 µM	30.2 µM	26.3 µM		31.3 µM	23.5 µM										
CCOC(=O)c1cnc2oc3ccc(O)cc3c2c1-c1ccccc1	> 100 µM	> 100 µM	> 100 µM	> 100 µM	> 100 µM	> 100 µM	> 100 µM	> 100 µM		> 100 µM										
